SMILES strings stand for the structures. Counter-ions that a name gives are not always drawn.

In general, clearance refers to the volume of plasma or blood freed of the substance per unit of time. By bioavailability is commonly meant dose-corrected exposure relative to a reference, in per cent. Usually Cmax stands for the maximum level reached in the sampled fluid or tissue. What is called IC50 is the point on the concentration scale where inhibition reaches its midpoint. High values mean lower potency, low ones higher potency.

A short description of series [1]: Pharmacokinetic evaluation of compounds in mice. It counts as in vivo. Particulars: mouse, plasma, male CD-1 mice; for clearance / bioavailability / half-life / Vd: IV 0.5 mg/kg; for bioavailability / AUC(0-t): PO 2.5 mg/kg; for half-life: read-out: T1/2 IV (converted); for Vd: read-out: Vdss; for AUC(0-t): read-out: AUC0-last PO; for Cmax: single dose, route not stated (IV 0.5 mg/kg, PO 2.5 mg/kg). The procedure: Assay 4: Pharmacokinetic Evaluation of Compounds
Assay purpose: Pharmacokinetics of compounds in […] mice was assayed.
CD-1 mice (male, 7-9 weeks old, Shanghai Slack)
The pharmacokinetic characteristics of rodents after intravenous (IV) and oral (PO) administration of compounds were assayed by standard protocols. In the assay, mice were given a single intravenous injection and oral administration. The vehicle for intravenous injection was water. The oral vehicle was 0.5% hypromellose. Four male CD-1 mice were used in this project. Two mice were administered intravenously at a dose of 0.5 mg/kg, and plasma samples were collected at 0 h (before administration) and 0.083, 0.25, 0.5, 1, 2, 4, 8, and 24 h after administration. The other two mice were orally administered by gavage at a dose of 2.5 mg/kg, and plasma samples were collected at 0 h (before administration) and 0.25, 0.5, 1, 2, 4, 8, and 24 h after administration. Whole blood samples within 24 hours were collected, and centrifuged at 3000 g for 15 minutes. The supernatant was separated to obtain a plasma sample, and protein was precipitated by adding 4 times volume of acetonitrile solution containing internal standard. The mixture was centrifuged to obtain a supernatant, and an equal volume of water was added to the obtained supernatant. The mixture was then centrifuged to obtain a supernatant for injection. The blood drug concentration was quantitatively analyzed by LC-MS/MS analysis method, and pharmacokinetic parameters were calculated, such as peak concentration (Cmax), clearance rate (CL), half-life (T1/2), […] (Vdss), area under the drug-time curve (AUC0-last), and bioavailability (F), etc.
The assay results are shown in Table 4: The compounds of the present disclosure have good pharmacokinetic properties.

The next series has as its system Capan-2 cells. As to the kind of experiment: Anti-proliferative activity on Capan-2 cells. It counts as cell-based. As to conditions: Homo sapiens, Capan-2, 120 h; 5 days, CellTiter-Glo. Here is the method:
2. Assay of Anti-Proliferative Activity on Capan-2 Cells
Capan-2 cells were planted in a white 96-well plate with 80 μL of cell suspension per well, which contained 5000 Capan-2 cells. The cell plate was placed in a carbon dioxide incubator for culture overnight.
The assay compound was serially diluted 3-fold with a discharge gun to the 9th concentration, that is, from 200 μM to 30 nM, in duplicate. 78 μL of medium was added to the middle plate, and then 2 μL of the serially diluted compound was transferred to each well of the middle plate according to the corresponding position. After mixing, 20 μL of the mixture was transferred to each well of the cell plate. The cell plate was incubated in a carbon dioxide incubator for 5 days. Another cell plate was prepared, and read on the day of drug addition. The signal value was used as the maximum value (The value of Max in the equation below) in data analysis. 25 μL of chemiluminescence detection reagent for cell viability was added to each well of this cell plate, and this cell plate was incubated at room temperature for 10 minutes to stabilize the luminescence signal. A multi-label analyzer was used to read results.
After the cell plate was cultured for 5 days, 25 μL of Promega CellTiter-Glo reagent was added to each well of the cell plate. The cell plate was incubated at room temperature for 10 minutes to stabilize the luminescence signal. A multi-label analyzer was used to read results.
The value of IC50 can be obtained by curve fitting. Table 2 provides the inhibitory activity of the compounds of the present disclosure on Capan-2 cell proliferation.

Series [2] deals with STF reporter gene for WNT pathway (Porcupine of the Wnt signaling pathway). As to the kind of experiment: Inhibitory activity on Super-Top-Flash (STF) reporter gene. Particulars: HEK293 STF and L wnt3A cells 1:1, 24 hours, Bright-Glo. Format: cell-based. The procedure: 1. Assay of Inhibitory Activity on Super-Top-Flash (STF) Reporter Gene
HEK293 STF and L wnt3A cells were planted at a ratio of 1:1 in a white 96-well plate with 80 μL of cell suspension per well, which contained 20,000 HEK293 STF cells and 20,000 L wnt3A cells. The cell plate was placed in a carbon dioxide incubator for culture overnight.
The assay compound was serially diluted 5-fold with a discharge gun to the 8th concentration, that is, from 400 μM to 5.12 nM, in duplicate. 78 μL of medium was added to the middle plate, and then 2 μL of the serially diluted compound was transferred to each well of the middle plate according to the corresponding position. After mixing, 20 μL of the mixture was transferred to each well of the cell plate. The cell plate was placed in a carbon dioxide incubator for 24 hours.
100 μL of Promega Bright-Glo reagent was added to each well of the cell plate, and the cell plate was incubated at room temperature for 10 minutes to stabilize the luminescence signal. A multi-label analyzer was used to read results.
The original data of the multi-label analyzer was used for calculation, and the value of IC50 can be obtained by curve fitting. Table 1 provides data of the inhibitory activity of the compounds of the present disclosure on the Wnt signaling pathway.

The test system of series [3] is human pancreatic cancer Capan-2 xenograft tumor. As to the kind of experiment: In vivo drug efficacy on Capan-2 transplanted tumor in nude mice. As to conditions: BID, Capan-2 Xenograft model. The procedure:
3. Assay of In Vivo Drug Efficacy on Capan-2 Transplanted Tumor in Nude Mice
Capan-2 cells were cultured in McCoy's 5A medium, containing 10% fetal bovine serum FBS, in a 37° C. incubator with 5% CO2. Tumor cells were collected after passaging and growing to a suitable concentration and during the logarithmic growth phase. The cells resuspended in McCoy's 5A medium were counted and the cell suspension was adjusted to a concentration of 2×10^7/mL for inoculation.
Establishment of human pancreatic cancer Capan-2 xenograft tumor. Cells were collected and the concentration was adjusted to 2×10^7 (resuspend with McCoy's 5A medium to a cell suspension containing 50% Martigel). Under aseptic conditions, 0.1 mL of tumor cells was injected subcutaneously into the right back of the mouse, and the number of cells inoculated per mouse was 2×10^6. After the tumor was grown to a certain size, digital vernier calipers was used to measure the length (a) and width (b) of the tumor, and the tumor volume was calculated. The calculation formula of tumor volume (TV) was: TV=a×b^2/2.
Capan-2 tumor cells were inoculated. When the tumor was grown to about 150 cubic millimeters, mice were divided into groups with 6 mice in each group. The day of grouping was regarded as day 0, and the drug was administered on the day of grouping. During the assay, the animal's body weight and tumor size were measured twice a week, and the animal's clinical symptoms were observed and recorded every day. For each administration, the most recently weighed animal body weight was referred to.
The evaluation index of anti-tumor activity is relative tumor proliferation rate T/C (%), wherein T/C (%)>40% means ineffective, and T/C (%)<40% and statistically P<0.05 means effective. The calculation formula of T/C (%) is: T/C (%)=(TRTV/CRTV)×100%. TRTV is relative tumor volume of the treatment group, and CRTV is relative tumor volume of the negative control group. TGI (%)^b tumor inhibition rate=(average tumor volume or weight of negative control group-average tumor volume or weight of administration group)/average tumor volume or weight of negative control group×100%. TGI (%)^a=[(1−(average tumor volume of a certain administration group at the time of measurement-average tumor volume of the administration group at the beginning of the administration))/(average tumor volume of vehicle control group at the time of measurement-average tumor volume of the vehicle control group at the beginning of the administration)]×100%.

With `Cc1cc(-c2ncc(CNc3nccn4c(-c5ccccc5)cnc34)cc2C)ccn1` [Compound 1], in series [1], the clearance stood at 5.05 mL/min/kg, the bioavailability came to 76.3%, the half-life is 2.23 h and the Vd came out at 0.633 L/kg. In series [1], the AUC(0-t) turned out to be 16.5 µM·h and the highest level (Cmax) was 3030 nM. This molecule gave an IC50 in the series with Capan-2 cells of 0.71 nM. In series [2], this molecule gave an IC50 of 0.12 nM. In series [3] (5 mg/Kg, 31 days), this molecule registered a T/C % of 21.58% and a TGI % of 96.7%.

`Cc1cc(-c2ncc(CNc3nccn4c(-c5ccccc5)ncc34)cc2C)ccn1` [Compound 11]: the IC50 in series [2] is 0.05 nM. Moreover, in series [3] (5 mg/Kg, 31 days), the T/C % came out at 31.29% and the TGI % is given as 82.8%.

`Cc1cc(-c2ncc(CNc3nccn4c(-c5cc(F)cc(F)c5)cnc34)cc2C)ccn1` [Compound 30 (hydrochloride)]: in series [1], the clearance stood at 5.75 mL/min/kg, the bioavailability turned out to be 98.8%, the half-life is 2.5 h and the Vd was 0.666 L/kg. Besides, in series [1], the AUC(0-t) was determined as 16.2 µM·h and the highest level (Cmax) was 2580 nM. Also, the IC50 in the series with Capan-2 cells came to 0.71 nM. This molecule had an IC50 in series [2] of 0.52 nM. In series [3] (2.5 mg/Kg), this molecule had a T/C % of 40.18% and a TGI % of 66.67%. In series [3] (5 mg/Kg, 31 days), this molecule had a T/C % of 25.31% and a TGI % of 84.93%.

As for `Cc1cc(-c2ncc(CNc3nccn4c(-c5cc(F)cc(F)c5)cnc34)cc2OCCN(C)C)ccn1` [Compound 33], in series [1], the clearance was determined as 35.1 mL/min/kg, the bioavailability was determined as 37.4%, the half-life is 3.69 h and the Vd stood at 9.52 L/kg. Moreover, in series [1], the AUC(0-t) stood at 0.975 µM·h and the Cmax is 107 nM. Besides, the IC50 in the series on Capan-2 cells is 2.3 nM. In series [3] (5 mg/Kg, 31 days), this molecule displayed a T/C % of 17.71% and a TGI % of 92.6%.

On to `Cc1cc(-c2ncc(CNc3nccn4c(-c5cc(F)cc(F)c5)cnc34)cc2F)ccn1` [Compound 36 (formate)], for which, in series [1], the clearance is 6.5 mL/min/kg, the bioavailability is 50.6%, the half-life was 3.05 h and the Vd came out at 1.35 L/kg. For the same molecule, in series [1], the AUC(0-t) was 7.23 µM·h and the concentration peaked (Cmax) at 980 nM. For the same molecule, the IC50 in the series on Capan-2 cells came out at 0.21 nM. Further, in series [3] (5 mg/Kg, 31 days), the T/C % worked out at 21% and the TGI % stood at 88.86%.

The values above are taken from US12365686B2, “Compound as porcupine inhibitor and use thereof” (JIANGSU KANION PHARMACEUTICAL CO., LTD., priority 2019, dated 2025).
